Structures are written as SMILES.

The assay addresses T1, human TLR7 (Homo sapiens, UniProt Q9NYK1).
T1 construct: host or cells: HEK293 (HEK-Blue hTLR7)
T1 sequence (Q9NYK1 27-1049): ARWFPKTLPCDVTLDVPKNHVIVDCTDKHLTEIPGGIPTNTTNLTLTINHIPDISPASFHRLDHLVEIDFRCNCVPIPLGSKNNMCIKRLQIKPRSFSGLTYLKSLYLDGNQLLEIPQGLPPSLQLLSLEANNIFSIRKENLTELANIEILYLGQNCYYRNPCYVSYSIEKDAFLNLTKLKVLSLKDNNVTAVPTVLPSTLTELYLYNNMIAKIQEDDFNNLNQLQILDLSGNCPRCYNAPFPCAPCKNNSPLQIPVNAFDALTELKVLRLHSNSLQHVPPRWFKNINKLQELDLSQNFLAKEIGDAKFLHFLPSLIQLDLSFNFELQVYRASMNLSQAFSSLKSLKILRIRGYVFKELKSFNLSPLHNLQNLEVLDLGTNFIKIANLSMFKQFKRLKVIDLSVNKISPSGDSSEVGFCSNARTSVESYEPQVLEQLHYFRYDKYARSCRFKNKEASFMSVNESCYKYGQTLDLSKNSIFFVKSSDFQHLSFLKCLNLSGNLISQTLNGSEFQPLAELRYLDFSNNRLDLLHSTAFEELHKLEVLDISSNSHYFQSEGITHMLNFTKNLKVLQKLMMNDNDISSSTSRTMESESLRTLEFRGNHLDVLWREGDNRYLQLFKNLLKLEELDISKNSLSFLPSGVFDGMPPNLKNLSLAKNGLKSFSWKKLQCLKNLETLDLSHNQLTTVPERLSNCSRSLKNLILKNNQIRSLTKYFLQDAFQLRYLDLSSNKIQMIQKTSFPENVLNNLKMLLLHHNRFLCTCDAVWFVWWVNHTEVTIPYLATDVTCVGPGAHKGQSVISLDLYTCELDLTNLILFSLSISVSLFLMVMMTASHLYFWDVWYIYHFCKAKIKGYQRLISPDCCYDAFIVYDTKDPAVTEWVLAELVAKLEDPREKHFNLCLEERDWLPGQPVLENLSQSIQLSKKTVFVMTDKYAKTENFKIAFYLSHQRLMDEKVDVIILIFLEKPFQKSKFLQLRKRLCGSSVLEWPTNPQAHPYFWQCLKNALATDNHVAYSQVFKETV
Put plainly: HEK293-Blue hTLR7 Reporter Assay (QUANTI-BLUE, SEAP readout). In kind it is cell-based. Conditions: HEK-Blue-hTLR7 cells, 24 hrs treatment, Table 1, B1-B232. Summed up: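 HEK-Blue-hTLR7 cells expressing NF-κB/AP-1-driven SEAP, 4×10^4 cells/well, treated 24 h at 37° C with increasing compound concentrations. Supernatant SEAP measured with Quanti-blue substrate (10-30 min, 37° C) at 620-655 nm; EC50 from sigmoidal dose-response fit.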
A general note: A reporter such as luciferase makes a cellular process visible.
What is called EC50 is the concentration giving half of the maximal effect. Read a low EC50 as higher potency in that assay. On to `CCCCOc1nc(N)c2ncc(Cc3cnc(N4CCC(CN)CC4)c(C)c3)n2n1` [Compound B144, 7-((6-(4-(aminomethyl)piperidin-1-yl)-5-methylpyridin-3-yl)methyl)-2-butoxyimidazo[2,1-f][1,2,4]triazin-4-amine], for which the EC50 is over 10000 nM.
Compound `CC[C@H](C)Oc1nc(N)c2ncc(Cc3cnc(N4CCN(C(=O)CN(C)C)CC4)c(C)c3)n2n1` [Compound B145, (S)-1-(4-(5-((4-amino-2-(sec-butoxy)imidazo[2,1-f] [1,2,4]triazin-7-yl)methyl)-3-methylpyridin-2-yl)piperazin-1-yl)-2-(dimethylamino)ethan-1-one] had a concentration giving a half-maximal response (EC50) of 8 nM.
With `CC[C@H](C)Oc1nc(N)c2ncc(Cc3cnc(N4CCN(C(=O)CNC)CC4)c(C)c3)n2n1` [Compound B146, (S)-1-(4-(5-((4-amino-2-(sec-butoxy)imidazo[2,1-f][1,2,4]triazin-7-yl)methyl)-3-methylpyridin-2-yl)piperazin-1-yl)-2-(methylamino)ethan-1-one] the figure was 10 nM; with `CCCC(C)Nc1nc(N)c2ncc(Cc3cnc(N4CCN(C(=O)CNC)CC4)c(C)c3)n2n1` (stereo not drawn) [Compound B149, 1-(4-(5-((4-amino-2-(pentan-2-ylamino)imidazo[2,1-f][1,2,4]triazin-7-yl)methyl)-3-methylpyridin-2-yl)piperazin-1-yl)-2-(methylamino)ethan-1-one], 6.3 nM.
As for `CCCC(C)Nc1nc(N)c2ncc(Cc3cnc(N4CCNCC4)c(C)c3)n2n1` (stereo not drawn) [Compound B150, 7-((5-methyl-6-(piperazin-1-yl)pyridin-3-yl)methyl)-N2-(pentan-2-yl)imidazo[2,1-f][1,2,4]triazine-2,4-diamine], a half-maximal effect (EC50) was put at 2.5 nM.
Consider `CCCC(C)Nc1nc(N)c2ncc(Cc3cnc(N4CCN(C(=O)CN(C)C)CC4)c(C)c3)n2n1` (stereo not drawn) [Compound B151, 1-(4-(5-((4-amino-2-(pentan-2-ylamino)imidazo[2,1-f][1,2,4]triazin-7-yl)methyl)-3-methylpyridin-2-yl)piperazin-1-yl)-2-(dimethylamino)ethan-1-one], for which a half-maximal response (EC50) required 3 nM.
In turn, `CC[C@@H](C)Oc1nc(N)c2ncc(Cc3cnc(N4CCNCC4)c(C)c3)n2n1` [Compound B152, (R)-2-(sec-butoxy)-7-((5-methyl-6-(piperazin-1-yl)pyridin-3-yl)methyl)imidazo[2,1-f][1,2,4]triazin-4-amine] displayed a concentration for a half-maximal effect (EC50) of 56 nM.
With `CC[C@@H](C)Oc1nc(N)c2ncc(Cc3cnc(N4CCN(C(=O)CN(C)C)CC4)c(C)c3)n2n1` [Compound B153, (R)-1-(4-(5-((4-amino-2-(sec-butoxy)imidazo[2,1-f][1,2,4]triazin-7-yl)methyl)-3-methylpyridin-2-yl)piperazin-1-yl)-2-(dimethylamino)ethan-1-one] the figure was 49 nM; with `CCC[C@H](C)Oc1nc(N)c2ncc(Cc3cnc(N4CCN(C(=O)CNC)CC4)c(C)c3)n2n1` [Compound B154, (S)-1-(4-(5-((4-amino-2-(pentan-2-yloxy)imidazo[2,1-f][1,2,4]triazin-7-yl)methyl)-3-methylpyridin-2-yl)piperazin-1-yl)-2-(methylamino)ethan-1-one], 1.6 nM; with `CCC(C)Oc1nc(N)c2ncc(Cc3cnc(N4CCN(C(=O)CN(C)C)CC4)c(C)c3)n2n1` (stereo not drawn) [Compound B155, 1-(4-(5-((4-amino-2-(sec-butoxy)imidazo[2,1-f][1,2,4]triazin-7-yl)methyl)-3-methylpyridin-2-yl)piperazin-1-yl)-2-(dimethylamino)ethan-1-one], 8.3 nM.
The figure for `CCC(C)Oc1nc(N)c2ncc(Cc3cnc(N4CCN(C(=O)CNC)CC4)c(C)c3)n2n1` (stereo not drawn) [Compound B156, 1-(4-(5-((4-amino-2-(sec-butoxy)imidazo[2,1-f][1,2,4]triazin-7-yl)methyl)-3-methylpyridin-2-yl)piperazin-1-yl)-2-(methylamino)ethan-1-one] is 9.7 nM; for `CC[C@H](C)Oc1nc(N)c2ncc(Cc3cnc(N4CCNCC4)c(C)c3)n2n1` [Compound B158, (S)-2-(sec-butoxy)-7-((5-methyl-6-(piperazin-1-yl)pyridin-3-yl)methyl)imidazo[2,1-f][1,2,4]triazin-4-amine] it is 6.5 nM.
The figure for `CC[C@@H](C)Oc1nc(N)c2ncc(Cc3cnc(N4CCN(C(=O)CNC)CC4)c(C)c3)n2n1` [Compound B159, (R)-1-(4-(5-((4-amino-2-(sec-butoxy)imidazo[2,1-f] [1,2,4]triazin-7-yl)methyl)-3-methylpyridin-2-yl)piperazin-1-yl)-2-(methylamino)ethan-1-one] is 48 nM; for `CCC[C@@H](C)Oc1nc(N)c2ncc(Cc3cnc(N4CCN(C(=O)CNC)CC4)c(C)c3)n2n1` [Compound B160, (R)-1-(4-(5-((4-amino-2-(pentan-2-yloxy)imidazo[2,1-f][1,2,4]triazin-7-yl)methyl)-3-methylpyridin-2-yl)piperazin-1-yl)-2-(methylamino)ethan-1-one] it is 25 nM; for `CCCCOc1nc(N)c2ncc(Cc3cnc(N4CCC(NC)CC4)c(C)c3)n2n1` [Compound B161, 2-butoxy-7-((5-methyl-6-(4-(methylamino)piperidin-1-yl)pyridin-3-yl)methyl)imidazo[2,1-f][1,2,4]triazin-4-amine] it is 11 nM.
On to `CCC(CC)Oc1nc(N)c2ncc(Cc3cnc(N4CCNCC4)c(C)c3)n2n1` [Compound B162, 7-((5-methyl-6-(piperazin-1-yl)pyridin-3-yl)methyl)-2-(pentan-3-yloxy)imidazo[2,1-f][1,2,4]triazin-4-amine], for which the EC50 is 8 nM.
For the compound `CCCC(CC)Oc1nc(N)c2ncc(Cc3cnc(N4CCC(N(C)C)CC4)c(C)c3)n2n1` (stereo not drawn) [Compound B163, 7-((6-(4-(dimethylamino)piperidin-1-yl)-5-methylpyridin-3-yl)methyl)-2-(hexan-3-yloxy)imidazo[2,1-f][1,2,4]triazin-4-amine], the EC50 came to 2.5 nM.
`CCCC(CC)Oc1nc(N)c2ncc(Cc3cnc(N4CCC(CN(C)C)CC4)c(C)c3)n2n1` (stereo not drawn) [Compound B164, 7-((6-(4-((dimethylamino)methyl)piperidin-1-yl)-5-methylpyridin-3-yl)methyl)-2-(hexan-3-yloxy)imidazo[2,1-f][1,2,4]triazin-4-amine] registered an EC50 of 4.1 nM.
In the case of `CCCC(C)Nc1nc(N)c2ncc(Cc3cnc(N4CCC(NC)CC4)c(C)c3)n2n1` (stereo not drawn) [Compound B166, 7-((5-methyl-6-(4-(methylamino)piperidin-1-yl)pyridin-3-yl)methyl)-N2-(pentan-2-yl)imidazo[2,1-f][1,2,4]triazine-2,4-diamine], the EC50 came to 2.6 nM.
The figure for `Cc1cc(Cc2cnc3c(N)nc(OC4CCCCC4)nn23)cnc1N1CCNCC1` [Compound B167, 2-(cyclohexyloxy)-7-((5-methyl-6-(piperazin-1-yl)pyridin-3-yl)methyl)imidazo[2,1-f][1,2,4]triazin-4-amine] is 497 nM.
In turn, `CCCCOc1nc(N)c2ncc(Cc3cnc(N4C[C@@H]5C[C@H]4CN5)c(C)c3)n2n1` [Compound B168, 7-((6-((1S,4S)-2,5-diazabicyclo[2.2.1]heptan-2-yl)-5-methylpyridin-3-yl)methyl)-2-butoxyimidazo[2,1-f][1,2,4]triazin-4-amine] had an EC50 of 124 nM.
The figure for `CCCC(CC)Oc1nc(N)c2ncc(Cc3cnc(N4CCN(C(=O)CN(C)C)CC4)c(C)c3)n2n1` (stereo not drawn) [Compound B169, 1-(4-(5-((4-amino-2-(hexan-3-yloxy)imidazo[2,1-f][1,2,4]triazin-7-yl)methyl)-3-methylpyridin-2-yl)piperazin-1-yl)-2-(dimethylamino)ethan-1-one] is 2.9 nM; for `CCCCOc1nc(N)c2ncc(Cc3cnc(N4CCN(C(=O)CN(CC)CC)CC4)c(C)c3)n2n1` [Compound B170, 1-(4-(5-((4-amino-2-butoxyimidazo[2,1-f][1,2,4]triazin-7-yl)methyl)-3-methylpyridin-2-yl)piperazin-1-yl)-2-(diethylamino)ethan-1-one] it is 29 nM.
With `Cc1cc(Cc2cnc3c(N)nc(OC4CCCC4)nn23)cnc1N1CCNCC1` [Compound B172, 2-(cyclopentyloxy)-7-((5-methyl-6-(piperazin-1-yl)pyridin-3-yl)methyl)imidazo[2,1-f][1,2,4]triazin-4-amine] the figure was 260 nM.

Source of the values: patent publication US12612407B2, “Imidazo[2,1-f][1,2,4]triazin-4-amine derivatives as TLR7 agonist” (BEIGENE, LTD., priority 2020, dated 2026).
